Source: US10759813B2, “Neprilysin inhibitors” (THERAVANCE BIOPHARMA R&D IP, LLC, priority 2010, dated 2020)

Biological target: human neprilysin (EC 3.4.24.11; NEP) (Homo sapiens (Human), UniProt P08473)
Assay: In vitro enzyme inhibition assay at human NEP (fluorogenic peptide substrate)
Type: biochemical
Details: pKi values at human NEP, recombinant human NEP
In short: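 Recombinant human NEP preincubated 30 min at 37 °C with compound (10 μM down to pM), then 10 μM Mca-D-Arg-Arg-Leu-Dap-(Dnp)-OH in 50 mM HEPES pH 7.5, 100 mM NaCl, 0.01% Tween-20, 10 μM ZnSO4. Stopped after 20 min with acetic acid; fluorescence Ex320/Em405; Ki by nonlinear fit, reported as pKi.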

Sequence of human neprilysin (EC 3.4.24.11; NEP) (P08473 52-750): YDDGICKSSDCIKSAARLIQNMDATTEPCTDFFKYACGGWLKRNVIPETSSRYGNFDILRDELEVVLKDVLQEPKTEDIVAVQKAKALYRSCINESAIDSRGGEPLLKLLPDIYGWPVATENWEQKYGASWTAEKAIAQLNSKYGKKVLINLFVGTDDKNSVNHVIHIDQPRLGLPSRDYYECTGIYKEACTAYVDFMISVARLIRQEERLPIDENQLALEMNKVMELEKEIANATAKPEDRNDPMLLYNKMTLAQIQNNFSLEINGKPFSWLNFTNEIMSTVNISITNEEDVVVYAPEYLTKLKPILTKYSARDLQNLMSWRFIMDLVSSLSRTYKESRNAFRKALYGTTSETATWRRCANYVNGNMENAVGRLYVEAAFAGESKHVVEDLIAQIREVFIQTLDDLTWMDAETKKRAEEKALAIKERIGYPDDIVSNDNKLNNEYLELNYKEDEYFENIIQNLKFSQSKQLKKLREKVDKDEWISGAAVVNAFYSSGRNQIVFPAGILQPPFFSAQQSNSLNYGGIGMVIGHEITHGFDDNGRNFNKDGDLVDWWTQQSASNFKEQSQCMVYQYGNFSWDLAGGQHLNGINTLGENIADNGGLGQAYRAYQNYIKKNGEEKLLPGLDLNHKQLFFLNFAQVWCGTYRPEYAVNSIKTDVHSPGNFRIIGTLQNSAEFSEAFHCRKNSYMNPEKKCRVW

Structure (SMILES)	Ki [nM]	pKi
O=C(N[C@H](Cc1ccc(-c2cccc(Cl)c2)cc1)C[C@@H](O)C(=O)O)c1cn(O)nn1 [Example 17-A, (2R,4R)-5-(3′-Chlorobiphenyl-4-yl)-2-hydroxy-4-[(1-hydroxy-1H-[1,2,3]triazole-4-carbonyl)-amino]pentanoic Acid]	≤ 1	
O=C(N[C@H](Cc1ccc(-c2cccc(Cl)c2)cc1)C[C@@H](O)C(=O)O)c1c[nH]nn1 [Example 18-2, (2R,4R)-5-(3′-Chlorobiphenyl-4-yl)-2-hydroxy-4-[(1H-[1,2,3]triazole-4-carbonyl)-amino]-pentanoic acid]		≥9.0
O=C(N[C@H](Cc1ccc(-c2cccc(Cl)c2)cc1)C[C@@H](O)C(=O)O)c1ccc2nnn(O)c2c1 [Example 18-3, (2R,4R)-5-(3′-Chlorobiphenyl-4-yl)-2-hydroxy-4-[(3-hydroxy-3H-benzotriazole-5-carbonyl)-amino]-pentanoic acid]		≥9.0
CC(=O)c1cc(C(=O)N[C@H](Cc2ccc(-c3cccc(Cl)c3)cc2)C[C@@H](O)C(=O)O)on1 [Example 18-7, (2R,4R)-4-[(3-Acetyl-isoxazole-5-carbonyl)-amino]-5-(3′-chlorobiphenyl-4-yl)-2-hydroxy-pentanoic acid]		≥9.0
COc1cc(C(=O)N[C@H](Cc2ccc(-c3cccc(Cl)c3)cc2)C[C@@H](O)C(=O)O)on1 [Example 18-8, (2R,4R)-5-(3′-Chlorobiphenyl-4-yl)-2-hydroxy-4-[(3-methoxy-isoxazole-5-carbonyl)-amino]-pentanoic acid]		≥9.0
O=C(N[C@H](Cc1ccc(-c2cccc(Cl)c2)cc1)C[C@@H](O)C(=O)O)c1cc(Cl)no1 [Example 18-9, (2R,4R)-5-(3′-Chloro-biphenyl-4-yl)-4-[(3-chloro-isoxazole-5-carbonyl)-amino]-2-hydroxy-pentanoic acid]		≥9.0
CC(C)c1cc(C(=O)N[C@H](Cc2ccc(-c3cccc(Cl)c3)cc2)C[C@@H](O)C(=O)O)on1 [Example 18-10, (2R,4R)-5-(3′-Chloro-biphenyl-4-yl)-2-hydroxy-4-[(3-isopropyl-isoxazole-5-carbonyl)-amino]-pentanoic acid]		≥9.0
CCCc1cc(C(=O)N[C@H](Cc2ccc(-c3cccc(Cl)c3)cc2)C[C@@H](O)C(=O)O)on1 [Example 18-11, (2R,4R)-5-(3′-Chloro-biphenyl-4-yl)-2-hydroxy-4-[(3-propyl-isoxazole-5-carbonyl)-amino]-pentanoic acid]		≥9.0
CC(C)Cc1cc(C(=O)N[C@H](Cc2ccc(-c3cccc(Cl)c3)cc2)C[C@@H](O)C(=O)O)on1 [Example 18-12, (2R,4R)-5-(3′-Chloro-biphenyl-4-yl)-2-hydroxy-4-[(3-isobutyl-isoxazole-5-carbonyl)-amino]-pentanoic acid]		≥9.0
CC(C)(O)c1cc(C(=O)N[C@H](Cc2ccc(-c3cccc(Cl)c3)cc2)C[C@@H](O)C(=O)O)on1 [Example 18-13, (2R,4R)-5-(3′-Chloro-biphenyl-4-yl)-2-hydroxy-4-{[3-(1-hydroxy-1-methyl-ethyl)-isoxazole-5-carbonyl]-amino}-pentanoic acid]		≥9.0
CC(C)(C)c1cc(C(=O)N[C@H](Cc2ccc(-c3cccc(Cl)c3)cc2)C[C@@H](O)C(=O)O)on1 [Example 18-14, (2R,4R)-4-[(3-tert-Butyl-isoxazole-5-carbonyl)-amino]-5-(3′-chloro-biphenyl-4-yl)-2-hydroxy-pentanoic acid]		≥9.0
O=C(N[C@H](Cc1ccc(-c2cccc(Cl)c2)cc1)C[C@@H](O)C(=O)O)c1cc(-c2ccccc2Cl)on1 [Example 18-15, (2R,4R)-5-(3′-Chlorobiphenyl-4-yl)-4-{[5-(2-chlorophenyl)-isoxazole-3-carbonyl]-amino}-2-hydroxy-pentanoic acid]		≥9.0
O=C(N[C@H](Cc1ccc(-c2cccc(Cl)c2)cc1)C[C@@H](O)C(=O)O)c1cc(-c2ccccc2O)on1 [Example 18-16, (2R,4R)-5-(3′-Chlorobiphenyl-4-yl)-2-hydroxy-4-{[5-(2-hydroxyphenyl)-isoxazole-3-carbonyl]-amino}-pentanoic acid]		≥9.0
O=C(N[C@H](Cc1ccc(-c2cccc(Cl)c2)cc1)C[C@@H](O)C(=O)O)c1cc(-c2ccccc2O)n[nH]1 [Example 18-17, (2R,4R)-5-(3′-Chlorobiphenyl-4-yl)-2-hydroxy-4-{[5-(2-hydroxy-phenyl)-2H-pyrazole-3-carbonyl]-amino}-pentanoic acid]		≥9.0
O=C(N[C@H](Cc1ccc(-c2cccc(Cl)c2)cc1)C[C@@H](O)C(=O)O)c1cc(-c2cnccn2)n[nH]1 [Example 18-19, (2R,4R)-5-(3′-Chlorobiphenyl-4-yl)-2-hydroxy-4-[(5-pyrazin-2-yl-2H-pyrazole-3-carbonyl)-amino]-pentanoic acid]		≥9.0
O=C(N[C@H](Cc1ccc(-c2cccc(Cl)c2)cc1)C[C@@H](O)C(=O)O)c1cc(-c2ccccn2)n[nH]1 [Example 18-23, (2R,4R)-5-(3′-Chlorobiphenyl-4-yl)-2-hydroxy-4-[(5-pyridin-2-yl-2H-pyrazole-3-carbonyl)-amino]-pentanoic acid]		≥9.0
O=C(N[C@H](Cc1ccc(-c2cccc(Cl)c2)cc1)C[C@@H](O)C(=O)O)c1cc(NC(=O)c2ccccc2Cl)n[nH]1 [Example 18-27, (2R,4R)-4-{[5-(2-Chlorobenzoylamino)-2H-pyrazole-3-carbonyl]-amino}-5-(3′-chlorobiphenyl-4-yl)-2-hydroxy-pentanoic acid]		≥9.0
COc1ccccc1C(=O)Nc1cc(C(=O)N[C@H](Cc2ccc(-c3cccc(Cl)c3)cc2)C[C@@H](O)C(=O)O)[nH]n1 [Example 18-31, (2R,4R)-5-(3′-Chloro-biphenyl-4-yl)-2-hydroxy-4-{[5-(2-methoxy-benzoylamino)-2H-pyrazole-3-carbonyl]-amino}-pentanoic acid]		≥9.0
CC(O)c1cc(C(=O)N[C@H](Cc2ccc(-c3cccc(Cl)c3)cc2)C[C@@H](O)C(=O)O)[nH]n1 (stereo partly drawn) [Example 18-32, (2R,4R)-5-(3′-Chloro-biphenyl-4-yl)-2-hydroxy-4-{[5-(1-hydroxy-ethyl)-2H-pyrazole-3-carbonyl]-amino}-pentanoic acid]		≥9.0
O=C(N[C@H](Cc1ccc(-c2cccc(Cl)c2)cc1)C[C@@H](O)C(=O)O)c1cc(-c2cccnc2)[nH]n1 [Example 18-34, (2R,4R)-5-(3′-Chlorobiphenyl-4-yl)-2-hydroxy-4-[(5-pyridin-3-yl-1H-pyrazole-3-carbonyl)-amino]-pentanoic acid]		≥9.0
Cn1nc(C(=O)N[C@H](Cc2ccc(-c3cccc(Cl)c3)cc2)C[C@@H](O)C(=O)O)cc1O [Example 18-35, (2R,4R)-5-(3′-Chloro-biphenyl-4-yl)-2-hydroxy-4-[(5-hydroxy-1-methyl-1H-pyrazole-3-carbonyl)-amino]-pentanoic acid]		≥9.0
O=C(N[C@H](Cc1ccc(-c2cccc(Cl)c2)cc1)C[C@@H](O)C(=O)O)c1cc(O)n(-c2ccccn2)n1 [Example 18-37, (2R,4R)-5-(3′-Chloro-biphenyl-4-yl)-2-hydroxy-4-[(5-hydroxy-1-pyridin-2-yl-1H-pyrazole-3-carbonyl)-amino]-pentanoic acid]		≥9.0
O=C(N[C@H](Cc1ccc(-c2cccc(Cl)c2)cc1)C[C@@H](O)C(=O)O)c1cc(O)n(-c2ccccc2F)n1 [Example 18-38, (2R,4R)-5-(3′-Chloro-biphenyl-4-yl)-4-{[1-(2-fluoro-phenyl)-5-hydroxy-1H-pyrazole-3-carbonyl]-amino}-2-hydroxy-pentanoic acid]		≥9.0
O=C(N[C@@H](Cc1ccc(-c2cccc(Cl)c2)cc1)C[C@@H](O)C(=O)O)c1cc(O)n(-c2cccc(Cl)c2)n1 [Example 18-39, (2R,4S)-5-(3′-Chloro-biphenyl-4-yl)-4-{[1-(3-chloro-phenyl)-5-hydroxy-1H-pyrazole-3-carbonyl]-amino}-2-hydroxy-pentanoic acid]		≥9.0
CCOc1cc(C(=O)N[C@H](Cc2ccc(-c3cccc(Cl)c3)cc2)C[C@@H](O)C(=O)O)n[nH]1 [Example 18-40, (2R,4R)-5-(3′-Chloro-biphenyl-4-yl)-4-[(5-ethoxy-1H-pyrazole-3-carbonyl)-amino]-2-hydroxy-pentanoic acid]		≥9.0
O=C(N[C@H](Cc1ccc(-c2cccc(Cl)c2)cc1)C[C@@H](O)C(=O)O)c1cc(=O)n(-c2ccccc2)[nH]1 [Example 18-41, (2R,4R)-5-(3′-Chlorobiphenyl-4-yl)-2-hydroxy-4-[(5-oxo-1-phenyl-2,5-dihydro-1H-pyrazole-3-carbonyl)-amino]-pentanoic acid]		≥9.0
O=C(N[C@H](Cc1ccc(-c2cccc(Cl)c2)cc1)C[C@@H](O)C(=O)O)c1nn(-c2cccc(Cl)c2)c(=O)[nH]1 [Example 18-42, (2R,4R)-5-(3′-Chloro-biphenyl-4-yl)-4-{[1-(3-chloro-phenyl)-5-oxo-4,5-dihydro-1H-[1,2,4]triazole-3-carbonyl]-amino}-2-hydroxy-pentanoic acid]		≥9.0
O=C(N[C@H](Cc1ccc(-c2cccc(Cl)c2)cc1)C[C@@H](O)C(=O)O)c1nn(-c2ccccc2Cl)c(=O)[nH]1 [Example 18-43, (2R,4R)-5-(3′-Chloro-biphenyl-4-yl)-4-{[1-(2-chloro-phenyl)-5-oxo-4,5-dihydro-1H-[1,2,4]triazole-3-carbonyl]-amino}-2-hydroxy-pentanoic acid]		≥9.0
O=C(N[C@H](Cc1ccc(-c2cccc(Cl)c2)cc1)C[C@@H](O)C(=O)O)c1nn(-c2ccc(F)cc2)c(=O)[nH]1 [Example 18-44, (2R,4R)-5-(3′-Chloro-biphenyl-4-yl)-4-{[1-(4-fluoro-phenyl)-5-oxo-4,5-dihydro-1H-[1,2,4]triazole-3-carbonyl]-amino}-2-hydroxy-pentanoic acid]		≥9.0
